Structures can show the parent of a compound that is named as a salt.

The subject of assay [1] is MCF-7. Nature of the assay: In vitro cytotoxicity (alamarBlue). Format: cell-based. The settings on record: Homo sapiens, MCF7; MCF-7, 48 h. The protocol:
(§1) Doxorubicin hydrochloride (DOX) was used as the positive control. For the MCF-7 and MCF-7/ADR, the initial concentration of DOX used was 10 μg/mL and 100 μg/mL, respectively.
On the technique in general: The colour change of resazurin is a common sign of viable cells or microbes.

The test system of assay [2] is MCF-7/ADR. Nature of the assay: In vitro cytotoxicity (alamarBlue). It counts as cell-based, human. The protocol:
as §1

Assay [3] concerns MCF-7 cells. Nature of the assay: Inhibition of cell migration (wound scratch assay). Format: cell-based, human. The settings on record: 24 h at respective IC50. The protocol: MCF-7 cells (8×10^5/well) were seeded in 6-well plates and incubated overnight for cell adhesion. To create a scratch, a 200 μL pipet tip was used to scrape a straight line through the cell layer. The old media was removed and washed with PBS, and the cells observed under a microscope to acquire images of the original scratch. […] After that, the scratches were observed and imaged using a microscope (Leica, Germany).

The test system of assay [4] is MCF-7 cells. The experiment in a line: Cellular morphology staining. It counts as cell-based, human. The following applies: MCF-7, 24 h; PLL-Gua and Gua-NPs 25 μg/mL, DOX 5.8 μg/mL. The protocol: (§2) MCF-7 and MCF-7/ADR cells were seeded at a density of 1000 cells/well in 50 μL medium, in a 384-well plate (PerkinElmer View Plate-384 Black). […] Treatment was performed at final concentrations of 25 μg/mL for PLL-Gua and Gua-NPs (on PLL-Gua basis) and 5.8 μg/mL for DOX, with a final volume of 40 μL per well. […] Subsequently, mitochondria were stained with Mito Tracker Deep Red solution in medium, with a final concentration of 100 nM. […] To fix the cells, 20 μL of 16% formaldehyde in PBS were added to each well (final concentration: 4%) and incubated in the dark at room temperature for 20 min. The cells were washed two times with 70 μL of Hanks' balanced salt solution (HBSS). […] The cells were incubated in the dark at room temperature for 30 min. Then, the cells were washed three times with 70 μL HBSS. The HBSS was not aspirated after the final washing step. The plates were sealed and centrifuged for 1 min at 500 rpm. The plate was then imaged using an Opera Phenix high content screening microscope (PerkinElmer) in 4 channels (Ex405/Em456; Ex488/Em522; Ex561/Em599; Ex640/Em706) with 9 sites per well and 63× magnification (binning 2).

Assay [5] relates to MCF-7/ADR cells. Nature of the assay: Cellular morphology staining. The settings on record: 24 h, PLL-Gua and Gua-NPs 25 μg/mL, DOX 5.8 μg/mL. Format: cell-based, human. The protocol:
as §2

Usually IC50 stands for the concentration that gives 50% inhibition. Lower therefore signals higher potency. As for `COc1cccc2c1C(=O)c1c(O)c3c(c(O)c1C2=O)C[C@@](O)(C(=O)CO)C[C@@H]3O[C@H]1C[C@H](N)[C@H](O)[C@H](C)O1` [DOX, Doxorubicin hydrochloride], in assay [1], the IC50 was 0.13 µg/mL. In addition, the “difference of IC50 value, MCF-7/ADR vs MCF-7” value in assay [2] was 769 fold. Further, in assay [3], the MCF-7 cell migration result is “reduced wound gap”. In addition, the cellular morphology result is “drastic decrease in the staining of DNA and RNA” in assay [4]; “did not induce such changes” in assay [5].

Values taken from US20240327469A1, “FUNCTIONALISED POLYPEPTIDES, NANOPARTICLES AND USES THEREOF” (priority 2021, published 2024).
